Assay results published in US10287297B2, “Epoxyazulene derivatives useful for treating cancer and diabetes” (The United States of America, as represented by the …, priority 2015, dated 2019).

Legend:
Format in all cases: cell-based
MALME-3M = assay: NCI 60 cell assay, melanoma MALME-3M; conditions: Homo sapiens, 48 h; MALME-3M (melanoma); drug exposure two days, SRB endpoint; read-out: GI-50 value
Method: (§1) Samples were tested in the standard National Cancer Institute 60-cell line protocol. First, they were tested against all 60 cell lines in a single final concentration of 10 micromolar. Then, they were separately tested in five 10-fold dilutions. The drug exposure was two days, with an SRB endpoint.

SF-539 = assay: NCI 60 cell assay, CNS SF-539; conditions: Homo sapiens, 48 h; SF-539 (CNS); drug exposure two days, SRB endpoint; read-out: GI-50 value
Method: as §1

HCC-2998 = assay: NCI 60 cell assay, colon HCC-2998; conditions: Homo sapiens, 48 h; HCC-2998 (colon); drug exposure two days, SRB endpoint; read-out: GI-50 value
Method: as §1

NCI-H226 = assay: NCI 60 cell assay, NSCLC NCI-H226; conditions: Homo sapiens, 48 h, drug exposure two days, SRB endpoint, read-out: GI-50 value
Method: as §1

HT29 = assay: NCI 60 cell assay, colon HT29; conditions: Homo sapiens, HT-29, 48 h, drug exposure two days, SRB endpoint, read-out: GI-50 value
Method: as §1

MDA-MB-231/ATCC = assay: NCI 60 cell assay, breast MDA-MB-231/ATCC; conditions: Homo sapiens, 48 h; MDA-MB-231/ATCC (breast); drug exposure two days, SRB endpoint; read-out: GI-50 value
Method: as §1

CCRF-CEM = assay: NCI 60 cell assay, leukemia CCRF-CEM; conditions: Homo sapiens, 48 h, drug exposure two days, SRB endpoint, read-out: GI-50 value
Method: as §1

T-47D = assay: NCI 60 cell assay, breast T-47D; conditions: Homo sapiens, T47D, 48 h; T-47D (breast); drug exposure two days, SRB endpoint; read-out: GI-50 value
Method: as §1

RPMI-8226 = assay: NCI 60 cell assay, leukemia RPMI-8226; conditions: Homo sapiens, 48 h; RPMI-8226 (leukemia); drug exposure two days, SRB endpoint; read-out: GI-50 value
Method: as §1

LOX IMVI = assay: NCI 60 cell assay, melanoma LOX IMVI; conditions: Homo sapiens, 48 h, drug exposure two days, SRB endpoint, read-out: GI-50 value
Method: as §1

SK-OV-3 = assay: NCI 60 cell assay, ovarian SK-OV-3; conditions: Homo sapiens, 48 h; SK-OV-3 (ovarian); drug exposure two days, SRB endpoint; read-out: GI-50 value
Method: as §1

MDA-MB-435 = assay: NCI 60 cell assay, melanoma MDA-MB-435; conditions: Homo sapiens, 48 h; MDA-MB-435 (melanoma); drug exposure two days, SRB endpoint; read-out: GI-50 value
Method: as §1

HL-60(TB) = assay: NCI 60 cell assay, leukemia HL-60(TB); conditions: Homo sapiens, 48 h; HL-60(TB) (leukemia); drug exposure two days, SRB endpoint; read-out: GI-50 value
Method: as §1

OVCAR-3 = assay: NCI 60 cell assay, ovarian OVCAR-3; conditions: Homo sapiens, 48 h; OVCAR-3 (ovarian); drug exposure two days, SRB endpoint; read-out: GI-50 value
Method: as §1

MDA-MB-468 = assay: NCI 60 cell assay, breast MDA-MB-468; conditions: Homo sapiens, 48 h; MDA-MB-468 (breast); drug exposure two days, SRB endpoint; read-out: GI-50 value
Method: as §1

HOP-92 = assay: NCI 60 cell assay, NSCLC HOP-92; conditions: Homo sapiens, 48 h; HOP-92 (NSCLC); drug exposure two days, SRB endpoint; read-out: GI-50 value
Method: as §1

NCI-H322M = assay: NCI 60 cell assay, NSCLC NCI-H322M; conditions: Homo sapiens, 48 h, drug exposure two days, SRB endpoint, read-out: GI-50 value
Method: as §1

COLO 205 = assay: NCI 60 cell assay, colon COLO 205; conditions: Homo sapiens, 48 h; COLO 205 (colon); drug exposure two days, SRB endpoint; read-out: GI-50 value
Method: as §1

SN12C = assay: NCI 60 cell assay, renal SN12C; conditions: Homo sapiens, 48 h, drug exposure two days, SRB endpoint, read-out: GI-50 value
Method: as §1

SR = assay: NCI 60 cell assay, leukemia SR; conditions: Homo sapiens, 48 h, drug exposure two days, SRB endpoint, read-out: GI-50 value
Method: as §1

SW-620 = assay: NCI 60 cell assay, colon SW-620; conditions: Homo sapiens, 48 h; SW-620 (colon); drug exposure two days, SRB endpoint; read-out: GI-50 value
Method: as §1

HOP-62 = assay: NCI 60 cell assay, NSCLC HOP-62; conditions: Homo sapiens, 48 h; HOP-62 (NSCLC); drug exposure two days, SRB endpoint; read-out: GI-50 value
Method: as §1

NCI-H460 = assay: NCI 60 cell assay, NSCLC NCI-H460; conditions: Homo sapiens, 48 h, drug exposure two days, SRB endpoint, read-out: GI-50 value
Method: as §1

IGROV1 = assay: NCI 60 cell assay, ovarian IGROV1; conditions: Homo sapiens, IGROV-1, 48 h, drug exposure two days, SRB endpoint, read-out: GI-50 value
Method: as §1

BT-549 = assay: NCI 60 cell assay, breast BT-549; conditions: Homo sapiens, 48 h; BT-549 (breast); drug exposure two days, SRB endpoint; read-out: GI-50 value
Method: as §1

NCI-H23 = assay: NCI 60 cell assay, NSCLC NCI-H23; conditions: Homo sapiens, 48 h, drug exposure two days, SRB endpoint, read-out: GI-50 value
Method: as §1

MCF7 = assay: NCI 60 cell assay, breast MCF7; conditions: Homo sapiens, 48 h, drug exposure two days, SRB endpoint, read-out: GI-50 value
Method: as §1

NCI/ADR-RES = assay: NCI 60 cell assay, ovarian NCI/ADR-RES; conditions: Homo sapiens, 48 h, drug exposure two days, SRB endpoint, read-out: GI-50 value
Method: as §1

KM12 = assay: NCI 60 cell assay, colon KM12; conditions: Homo sapiens, 48 h, drug exposure two days, SRB endpoint, read-out: GI-50 value
Method: as §1

M14 = assay: NCI 60 cell assay, melanoma M14; conditions: Homo sapiens, 48 h, drug exposure two days, SRB endpoint, read-out: GI-50 value
Method: as §1

DU-145 = assay: NCI 60 cell assay, prostate DU-145; conditions: Homo sapiens, 48 h; DU-145 (prostate); drug exposure two days, SRB endpoint; read-out: GI-50 value
Method: as §1

HCT-116 = assay: NCI 60 cell assay, colon HCT-116; conditions: Homo sapiens, 48 h; HCT-116 (colon); drug exposure two days, SRB endpoint; read-out: GI-50 value
Method: as §1

HS 578T = assay: NCI 60 cell assay, breast HS 578T; conditions: Homo sapiens, 48 h; HS 578T (breast); drug exposure two days, SRB endpoint; read-out: GI-50 value
Method: as §1

A498 = assay: NCI 60 cell assay, renal A498; conditions: Homo sapiens, 48 h, drug exposure two days, SRB endpoint, read-out: GI-50 value
Method: as §1

Row | Compound | GI50 (MALME-3M) | GI50 (SF-539) | GI50 (HCC-2998) | GI50 (NCI-H226) | GI50 (HT29) | GI50 (MDA-MB-231/ATCC) | GI50 (CCRF-CEM) | GI50 (T-47D) | GI50 (RPMI-8226) | GI50 (LOX IMVI) | GI50 (SK-OV-3) | GI50 (MDA-MB-435) | GI50 (HL-60(TB)) | GI50 (OVCAR-3) | GI50 (MDA-MB-468) | GI50 (HOP-92) | GI50 (NCI-H322M) | GI50 (COLO 205) | GI50 (SN12C) | GI50 (SR) | other results
1 | CC1=C2[C@@H](CC1)[C@]1(C)O[C@@](C(C)C)(C[C@H]1OC(=O)CO)[C@H]2OC(=O)C1CC1c1ccccc1 (stereo partly drawn) [Compound (Ij), (3aR,4S,5R,7R,8S)-5-(2-hydroxyacetoxy)-7-isopropyl-1,4-dimethyl-2,3,3a,4,5,6,7,8-octahydro-4,7-epoxyazulen-8-yl-2-phenylcyclopropane-1-carboxylate] | 17 µM | 17 µM | 14 µM | 17 µM | 13 µM | 15 µM | 18 µM | 4.6 µM | 13 µM | 15 µM | 17 µM | 15 µM | 14 µM | 14 µM | 13 µM | 13 µM | 19 µM | 17 µM | 7.4 µM | 14 µM | GI50 (SW-620): 17 µM; GI50 (HOP-62): 17 µM; GI50 (NCI-H460): 16 µM; GI50 (IGROV1): 19 µM; GI50 (BT-549): 14 µM; GI50 (NCI-H23): 15 µM; GI50 (MCF7): 8.9 µM; GI50 (NCI/ADR-RES): 12 µM; GI50 (KM12): 13 µM; GI50 (M14): 13 µM; GI50 (DU-145): 16 µM; GI50 (HCT-116): 19 µM; GI50 (HS 578T): 0.15 µM; GI50 (A498): 0.27 µM
2 | CC1=C2[C@@H](CC1)[C@]1(C)O[C@@](C3CC3)(C[C@H]1OC(=O)CO)[C@H]2OC(=O)C=Cc1ccccc1 [Compound (Is), (3aR,4S,5R,7R,8S)-7-cyclopropyl-5-(2-hydroxyacetoxy)-1,4-dimethyl-2,3,3a,4,5,6,7,8-octahydro-4,7-epoxyazulen-8-yl cinnamate] | 16 µM | 17 µM | 17 µM | 17 µM | 17 µM | 18 µM | 19 µM | 14 µM | 20 µM | 17 µM | 16 µM | 17 µM | 12 µM | 16 µM | 15 µM | 17 µM | 17 µM | 19 µM | 0.052 µM | 17 µM | GI50 (SW-620): 20 µM; GI50 (HOP-62): 16 µM; GI50 (NCI-H460): 18 µM; GI50 (IGROV1): 19 µM; GI50 (BT-549): 0.21 µM; GI50 (NCI-H23): 17 µM; GI50 (MCF7): 13 µM; GI50 (NCI/ADR-RES): 0.071 µM; GI50 (KM12): 17 µM; GI50 (M14): 17 µM; GI50 (DU-145): 18 µM; GI50 (HCT-116): 16 µM; GI50 (HS 578T): 0.023 µM; GI50 (A498): 0.11 µM
